What was measured:
Assay in all cases: relative viability (nuclei count vs DMSO), 5 days (fraction); higher = more cells survive
[1] = compound: COCC[n+]1c2c(n(Cc3cnccn3)c1C)C(=O)c1ccccc1C2=O [YM155] + CS(=O)(=O)CCNCc1ccc(-c2ccc3ncnc(Nc4ccc(OCc5cccc(F)c5)c(Cl)c4)c3c2)o1 [Lapatinib] (partner 2 µM)
Summary of the method: (§1)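 Each reported value is a median over duplicate plates. It expresses relative viability: treated-well nuclei count divided by vehicle-well nuclei count. Lung cancer cell lines in 1536-well plates were dosed by pin tool a day after seeding, alone with one drug or with a fixed anchor-drug dose plus five library-drug doses (not always all listed) in √10 steps, and nuclei were counted after 5 days.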

[2] = compound: CC(C)(C)c1cc(NC(=O)Nc2ccc(-c3cn4c(n3)sc3cc(OCCN5CCOCC5)ccc34)cc2)no1 [Quizartinib] + N=C(N)NC(=N)NCCc1ccccc1 [Phenformin] (partner 250 µM)
Summary of the method: as §1

[3] = compound: COCC[n+]1c2c(n(Cc3cnccn3)c1C)C(=O)c1ccccc1C2=O [YM155] + CC(C)C[C@H](NC(=O)[C@H](Cc1ccccc1)NC(=O)c1cnccn1)B(O)O [Bortezomib] (partner 0.002 µM)
Summary of the method: as §1

[4] = compound: CC(C)(C)c1cc(NC(=O)Nc2ccc(-c3cn4c(n3)sc3cc(OCCN5CCOCC5)ccc34)cc2)no1 [Quizartinib] + Cc1cc(Nc2cc(N3CCN(C)CC3)nc(Sc3ccc(NC(=O)C4CC4)cc3)n2)n[nH]1 [Tozasertib] (partner 0.1 µM)
Summary of the method: as §1

With NCI-H727 the relative viability ([1]; first compound 0.002 µM) was 0.614, the relative viability ([1]; first compound 0.006325 µM) was 0.704 and the relative viability ([1]; first compound 0.02 µM) was 1.01. It also gave a relative viability ([1]; first compound 0.06325 µM) of 0.953, a relative viability ([2]; first compound 0.003162 µM) of 0.514 and a relative viability ([2]; first compound 0.01 µM) of 0.584. It also gave a relative viability ([2]; first compound 0.03162 µM) of 0.52, a relative viability ([2]; first compound 0.1 µM) of 0.469 and a relative viability ([3]; first compound 0.002 µM) of 0.88. For the same cell line, the relative viability ([3]; first compound 0.006325 µM) was 0.771, the relative viability ([3]; first compound 0.02 µM) was 0.924 and the relative viability ([3]; first compound 0.06325 µM) was 0.977. It also gave a relative viability ([4]; first compound 0.001 µM) of 0.594, a relative viability ([4]; first compound 0.003162 µM) of 0.654 and a relative viability ([4]; first compound 0.01 µM) of 0.557. The relative viability ([4]; first compound 0.03162 µM) was 0.648 and the relative viability ([4]; first compound 0.1 µM) was 0.7.
NCI-H460 showed a relative viability ([1]; first compound 0.002 µM) of 0.906, a relative viability ([1]; first compound 0.006325 µM) of 1.1 and a relative viability ([1]; first compound 0.02 µM) of 1.05. The relative viability ([1]; first compound 0.06325 µM) was 0.452, the relative viability ([2]; first compound 0.001 µM) was 0.379 and the relative viability ([2]; first compound 0.003162 µM) was 0.48. For the same cell line, the relative viability ([2]; first compound 0.01 µM) was 0.587, the relative viability ([2]; first compound 0.03162 µM) was 0.0822 and the relative viability ([2]; first compound 0.1 µM) was 0.028. The relative viability ([3]; first compound 0.002 µM) was 0.991, the relative viability ([3]; first compound 0.006325 µM) was 1.24 and the relative viability ([3]; first compound 0.02 µM) was 1.19. For the same cell line, the relative viability ([3]; first compound 0.06325 µM) was 1.04, the relative viability ([4]; first compound 0.001 µM) was 0.4 and the relative viability ([4]; first compound 0.003162 µM) was 0.401. It also gave a relative viability ([4]; first compound 0.01 µM) of 0.394, a relative viability ([4]; first compound 0.03162 µM) of 0.142 and a relative viability ([4]; first compound 0.1 µM) of 0.0635.
For NCI-H647, the relative viability ([1]; first compound 0.002 µM) was 1.13, the relative viability ([1]; first compound 0.006325 µM) was 1.08 and the relative viability ([1]; first compound 0.02 µM) was 0.799. It also gave a relative viability ([1]; first compound 0.06325 µM) of 0.405, a relative viability ([2]; first compound 0.001 µM) of 0.463 and a relative viability ([2]; first compound 0.003162 µM) of 0.591. For the same cell line, the relative viability ([2]; first compound 0.01 µM) was 0.569, the relative viability ([2]; first compound 0.03162 µM) was 0.453 and the relative viability ([2]; first compound 0.1 µM) was 0.514. It also gave a relative viability ([3]; first compound 0.002 µM) of 0.777, a relative viability ([3]; first compound 0.006325 µM) of 1 and a relative viability ([3]; first compound 0.02 µM) of 0.826. For the same cell line, the relative viability ([3]; first compound 0.06325 µM) was 0.792, the relative viability ([4]; first compound 0.001 µM) was 0.267 and the relative viability ([4]; first compound 0.003162 µM) was 0.258. It also gave a relative viability ([4]; first compound 0.01 µM) of 0.284, a relative viability ([4]; first compound 0.03162 µM) of 0.329 and a relative viability ([4]; first compound 0.1 µM) of 0.301.
With HOP-62 the relative viability ([1]; first compound 0.002 µM) was 0.831, the relative viability ([1]; first compound 0.006325 µM) was 1.02 and the relative viability ([1]; first compound 0.02 µM) was 0.973. For the same cell line, the relative viability ([1]; first compound 0.06325 µM) was 0.961, the relative viability ([2]; first compound 0.001 µM) was 0.624 and the relative viability ([2]; first compound 0.003162 µM) was 0.625. For the same cell line, the relative viability ([2]; first compound 0.01 µM) was 0.84, the relative viability ([2]; first compound 0.03162 µM) was 0.662 and the relative viability ([2]; first compound 0.1 µM) was 0.666. It also gave a relative viability ([3]; first compound 0.002 µM) of 0.737, a relative viability ([3]; first compound 0.006325 µM) of 0.752 and a relative viability ([3]; first compound 0.02 µM) of 0.763. It also gave a relative viability ([3]; first compound 0.06325 µM) of 0.696, a relative viability ([4]; first compound 0.001 µM) of 0.358 and a relative viability ([4]; first compound 0.003162 µM) of 0.363. It also gave a relative viability ([4]; first compound 0.01 µM) of 0.416, a relative viability ([4]; first compound 0.03162 µM) of 0.352 and a relative viability ([4]; first compound 0.1 µM) of 0.33.
With HCC-44 the relative viability ([1]; first compound 0.002 µM) was 0.994, the relative viability ([1]; first compound 0.006325 µM) was 0.998 and the relative viability ([1]; first compound 0.02 µM) was 1.02. The relative viability ([1]; first compound 0.06325 µM) was 1.08, the relative viability ([2]; first compound 0.001 µM) was 0.203 and the relative viability ([2]; first compound 0.003162 µM) was 0.323. The relative viability ([2]; first compound 0.03162 µM) was 0.169, the relative viability ([2]; first compound 0.1 µM) was 0.261 and the relative viability ([3]; first compound 0.002 µM) was 0.871. The relative viability ([3]; first compound 0.006325 µM) was 0.908, the relative viability ([3]; first compound 0.02 µM) was 0.968 and the relative viability ([3]; first compound 0.06325 µM) was 0.936. For the same cell line, the relative viability ([4]; first compound 0.003162 µM) was 0.867, the relative viability ([4]; first compound 0.01 µM) was 0.849 and the relative viability ([4]; first compound 0.03162 µM) was 0.645. It also gave a relative viability ([4]; first compound 0.1 µM) of 0.689.
NCI-H1993 showed a relative viability ([1]; first compound 0.002 µM) of 0.81, a relative viability ([1]; first compound 0.006325 µM) of 0.736 and a relative viability ([1]; first compound 0.02 µM) of 0.682. The relative viability ([1]; first compound 0.06325 µM) was 0.757, the relative viability ([2]; first compound 0.001 µM) was 0.478 and the relative viability ([2]; first compound 0.003162 µM) was 0.48. For the same cell line, the relative viability ([2]; first compound 0.01 µM) was 0.523, the relative viability ([2]; first compound 0.03162 µM) was 0.441 and the relative viability ([2]; first compound 0.1 µM) was 0.625. For the same cell line, the relative viability ([3]; first compound 0.002 µM) was 1.12, the relative viability ([3]; first compound 0.006325 µM) was 1.05 and the relative viability ([3]; first compound 0.02 µM) was 0.922. It also gave a relative viability ([3]; first compound 0.06325 µM) of 0.69, a relative viability ([4]; first compound 0.001 µM) of 0.589 and a relative viability ([4]; first compound 0.003162 µM) of 0.645. It also gave a relative viability ([4]; first compound 0.01 µM) of 0.594, a relative viability ([4]; first compound 0.03162 µM) of 0.622 and a relative viability ([4]; first compound 0.1 µM) of 0.582.
Cell Line A-427 has a relative viability ([1]; first compound 0.002 µM) of 1, a relative viability ([1]; first compound 0.006325 µM) of 0.994 and a relative viability ([1]; first compound 0.02 µM) of 1.07. For the same cell line, the relative viability ([1]; first compound 0.06325 µM) was 0.987, the relative viability ([2]; first compound 0.003162 µM) was 0.411 and the relative viability ([2]; first compound 0.01 µM) was 0.327. For the same cell line, the relative viability ([2]; first compound 0.03162 µM) was 0.256, the relative viability ([2]; first compound 0.1 µM) was 0.189 and the relative viability ([3]; first compound 0.002 µM) was 0.972. It also gave a relative viability ([3]; first compound 0.006325 µM) of 0.99, a relative viability ([3]; first compound 0.02 µM) of 1.17 and a relative viability ([3]; first compound 0.06325 µM) of 0.896. For the same cell line, the relative viability ([4]; first compound 0.003162 µM) was 0.204, the relative viability ([4]; first compound 0.01 µM) was 0.191 and the relative viability ([4]; first compound 0.03162 µM) was 0.204. For the same cell line, the relative viability ([4]; first compound 0.1 µM) was 0.189.
Work on COR-L23 yielded a relative viability ([1]; first compound 0.002 µM) of 0.837, a relative viability ([1]; first compound 0.006325 µM) of 0.917 and a relative viability ([1]; first compound 0.02 µM) of 0.503. It also gave a relative viability ([1]; first compound 0.06325 µM) of 0.15, a relative viability ([2]; first compound 0.001 µM) of 0.419 and a relative viability ([2]; first compound 0.003162 µM) of 0.389. The relative viability ([2]; first compound 0.01 µM) was 0.476, the relative viability ([2]; first compound 0.03162 µM) was 0.37 and the relative viability ([2]; first compound 0.1 µM) was 0.322. The relative viability ([3]; first compound 0.002 µM) was 0.923, the relative viability ([3]; first compound 0.006325 µM) was 0.929 and the relative viability ([3]; first compound 0.02 µM) was 0.617. It also gave a relative viability ([3]; first compound 0.06325 µM) of 0.362, a relative viability ([4]; first compound 0.001 µM) of 0.175 and a relative viability ([4]; first compound 0.003162 µM) of 0.178. For the same cell line, the relative viability ([4]; first compound 0.01 µM) was 0.159, the relative viability ([4]; first compound 0.03162 µM) was 0.116 and the relative viability ([4]; first compound 0.1 µM) was 0.139.
In the case of NCI-H2023, the relative viability ([1]; first compound 0.002 µM) is reported as 0.884, the relative viability ([1]; first compound 0.006325 µM) is reported as 0.827 and the relative viability ([1]; first compound 0.02 µM) is reported as 0.867. It also gave a relative viability ([1]; first compound 0.06325 µM) of 0.49, a relative viability ([2]; first compound 0.001 µM) of 0.347 and a relative viability ([2]; first compound 0.003162 µM) of 0.378. For the same cell line, the relative viability ([2]; first compound 0.01 µM) was 0.372, the relative viability ([2]; first compound 0.1 µM) was 0.312 and the relative viability ([3]; first compound 0.002 µM) was 0.984. For the same cell line, the relative viability ([3]; first compound 0.006325 µM) was 1.01, the relative viability ([3]; first compound 0.02 µM) was 1.17 and the relative viability ([3]; first compound 0.06325 µM) was 0.893. It also gave a relative viability ([4]; first compound 0.001 µM) of 0.278, a relative viability ([4]; first compound 0.003162 µM) of 0.32 and a relative viability ([4]; first compound 0.01 µM) of 0.272. For the same cell line, the relative viability ([4]; first compound 0.1 µM) was 0.177.

From the supplement of paper PMC10307832
